Publication PMC2854715, “Oxpholipin 11D: An Anti-Inflammatory Peptide That Binds Cholesterol and Oxidized Phospholipids” (PLoS ONE, 2010)
“Also recorded” adds a separate entry of the source. Non-standard residues stand in square brackets, D forms with d. Residues, ends and D or L forms follow the SMILES beside them. dDip = N[C@@H](C(=O)O)C(c1ccccc1)c1ccccc1

Assays:
SPR binding to KOdiA-PC = test: SPR binding to KOdiA-PC
Protocol: (§1) Binding experiments were done by surface plasmon resonance (SPR) on a BIAcore 3000 system (BiaCore AB, Piscataway, NJ). Peptide ligands and apoA-I were immobilized on a BIAcore CM5 sensor chip activated per the manufacturer's protocol with N-hydroxysuccinimide and 1-ethyl-3-(3-[…]) carbodiimide. After achieving adequate immobilization, the activated sensor surface was blocked with ethanolamine.
(§2) Lipid stock solutions were prepared in absolute ethanol and then diluted into a standard BIAcore buffer (HBS-EP), containing 10 mM HEPES, pH 7.4, 150 mM NaCl, 3 mM EDTA and 0.005% (v/v) surfactant P20. Lipid concentrations used in the binding studies were selected to give binding responses of 30-500 resonance units. Lipid stock solutions were prepared at 1 mg/ml in ethanol. […] Ethanol-free HBS-EP buffer was used during the dissociation phase. Lipid binding was measured by observing the change in the SPR angle as 150 µl of lipid analyte (various concentrations) in HBS-EP buffer flowed over the biosensor for 3 min at 50 µl/min. Biosensors were washed with 25 or 50% ethanol to regenerate them between binding studies. SPR data were corrected for background binding to the matrix of the chip (“blank” channel) and analyzed with BIAevaluation 4.1 software (Biacore, Piscataway, NJ).

Bovine albumin = target: T1, Bovine albumin (Bos taurus, UniProt P02769); test: SPR binding to bovine albumin (control); details: peptide immobilized on CM5 chip, analyte in HBS-EP pH 7.4, mean ± SEM
T1 construct: purchased Sigma-Aldrich
T1 sequence (P02769 25-607): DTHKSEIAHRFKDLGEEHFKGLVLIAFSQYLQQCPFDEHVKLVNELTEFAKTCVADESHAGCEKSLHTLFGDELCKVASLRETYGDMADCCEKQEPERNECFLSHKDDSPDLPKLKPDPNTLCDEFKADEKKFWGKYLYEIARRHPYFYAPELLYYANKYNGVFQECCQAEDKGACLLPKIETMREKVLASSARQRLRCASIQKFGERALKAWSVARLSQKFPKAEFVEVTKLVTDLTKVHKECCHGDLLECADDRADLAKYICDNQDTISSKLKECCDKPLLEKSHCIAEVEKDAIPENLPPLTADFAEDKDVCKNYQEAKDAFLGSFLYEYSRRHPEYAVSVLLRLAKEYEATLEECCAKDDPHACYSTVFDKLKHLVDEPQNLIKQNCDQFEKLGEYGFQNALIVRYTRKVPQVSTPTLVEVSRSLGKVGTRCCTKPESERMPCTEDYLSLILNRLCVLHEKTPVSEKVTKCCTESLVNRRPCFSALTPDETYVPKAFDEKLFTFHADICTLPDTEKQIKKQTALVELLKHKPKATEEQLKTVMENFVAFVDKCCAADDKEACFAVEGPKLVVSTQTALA
Protocol: as §1, §2

[1] = SPR binding to palmitic acid
Protocol: as §1, §2

SPR binding to POVPC = test: SPR binding to POVPC
Protocol: as §1, §2

[2] = SPR binding to cholesterol; details: peptide immobilized on CM5 chip, sterol in HBS-EP pH 7.4, mean ± SEM
Protocol: as §1, §2

[3] = SPR binding to 12(S)-HPETE
Protocol: as §1, §2

[4] = SPR binding to arachidonic acid
Protocol: as §1, §2

[5] = SPR binding to linoleic acid
Protocol: as §1, §2

[6] = SPR binding to 5(S)-HPETE
Protocol: as §1, §2

apoE deficient mice = test: In vivo activity in apoE deficient mice: HDL inflammatory index; details: 1 mg/kg subcutaneously, fasting female apoE deficient mice, HDL isolated 6 h after dose, normalized to LDL; Figure 3
Protocol: As previously described, [64], HAEC cells were treated with native LDL (250 µg/ml) in the absence or presence of HDL or tested peptides for 8 h. After these cultures were washed, the medium was replaced by fresh Medium 199 and the cultures were incubated for an additional 8 h. This culture medium was collected and assayed for monocyte chemotactic activity using chambers purchased from Neuroprobe (Cabin John, MD). After monocytes were added to the upper compartment, the chamber was incubated for 60 min at 37°C and subsequently disassembled. The membrane was rinsed, air dried, fixed with 1% glutaraldehyde, stained with 0.1% crystal violet dye, and 12 standardized high power fields were examined microscopically. The number of migrated monocytes was expressed as the mean ±SD of monocytes counted. Values obtained in the absence of HDL were normalized to a value of 1.0. Normalized values >1.0 after HDL addition were considered to be pro-inflammatory, and values <1.0 as being anti-inflammatory.
ApoE null mice on a C57BL/6J background, originally from Jackson Laboratories (Bar Harbor, ME), were maintained in a breeding colony in the Department of Laboratory and Animal Medicine at the David Geffen School of Medicine at UCLA. The mice were maintained on a chow diet (Ralston Purina, St. Louis, MO).
Six hours later, and with continued fasting, blood was removed from the retro-orbital sinus under mild isoflurane anesthesia, and anticoagulated with heparin (2.5 U/ml). Plasma was obtained and fractionated by FPLC. HDL-containing fractions were tested in HAEC cultures for their ability to inhibit LDL-induced monocyte chemotactic activity. All procedures conformed to regulations of the UCLA Animal Research Committee. An HDL inflammatory index was determined using the standard monocyte chemotaxis assay. Indices >1 were interpreted as pro-inflammatory, and indices <1 as anti-inflammatory.

[7] = SPR binding to 24(S)-hydroxycholesterol
Protocol: as §1, §2

[8] = SPR binding to 13(S)-HPODE
Protocol: as §1, §2

SPR binding to PEIPC = test: SPR binding to PEIPC
Protocol: as §1, §2

[9] = SPR binding to 13(S)-HODE
Protocol: as §1, §2

[10] = SPR binding to 20(S)-hydroxycholesterol
Protocol: as §1, §2

[11] = SPR binding to 25-hydroxycholesterol; details: peptide immobilized on CM5 chip, sterol in HBS-EP pH 7.4, mean ± SEM
Protocol: as §1, §2

[12] = SPR binding to 22(S)-hydroxycholesterol
Protocol: as §1, §2

[13] = SPR binding to 4β-hydroxycholesterol; details: peptide immobilized on CM5 chip, sterol in HBS-EP pH 7.4, mean ± SEM
Protocol: as §1, §2

[14] = SPR binding to 12(S)-HETE
Protocol: as §1, §2

SPR binding to 9(S)-HODE = test: SPR binding to 9(S)-HODE
Protocol: as §1, §2

[15] = SPR binding to 15(S)-HPETE
Protocol: as §1, §2

SPR binding to PGPC = test: SPR binding to PGPC
Protocol: as §1, §2

[16] = SPR binding to 15(S)-HETE
Protocol: as §1, §2

[17] = KD(D-4F)/KD(OxP-11D), >1: OxP-11D binds with higher affinity
[18] = SPR, peptide immobilized on CM5 chip, lipid in HBS-EP pH 7.4, mean ± SEM
[19] = based on the KD ratios of Table 3
[20] = SPR, peptide immobilized on CM5 chip, sterol in HBS-EP pH 7.4, mean ± SEM

SMILES: CC(C)C[C@@H](NC(=O)CNC(=O)[C@H](NC(=O)[C@H](NC(=O)[C@@H](CCC(=O)O)NC(=O)[C@H](N)CCCNC(=N)N)C(c1ccccc1)c1ccccc1)[C@H](C)O)C(=O)N[C@H](C)C(=O)N[C@H](Cc1c[nH]c2ccccc12)C(=O)N[C@H](CCC(=O)O)C(=O)N[C@H](Cc1c[nH]c2ccccc12)C(=O)N[C@H](Cc1c[nH]c2ccccc12)C(=O)N[C@H](CCCNC(=N)N)C(=O)N[C@@H](C(=O)N[C@@H](C(N)=O)C(C)C)[C@H](C)O [OxP-11D] (H-[dR][dE][dDip][dT]G[dL][dA][dW][dE][dW][dW][dR][dT][dV]-NH2; N-terminus assumed)
- D-4F/OxP-11D KD Ratio, KOdiA-PC (SPR binding to KOdiA-PC; [17]): 0.003
- Kd (SPR binding to KOdiA-PC; [18]): 190 nM
- Kd (Bovine albumin): 690 nM
- D-4F/OxP-11D KD Ratio, palmitic acid [1, 17]: 2.030
- Kd [1, 18]: 330 nM
- D-4F/OxP-11D KD Ratio, POVPC (SPR binding to POVPC; [17]): 0.008
- Kd (SPR binding to POVPC; [18]): 300 nM
- Kd [2]: 360 nM
- D-4F/OxP-11D KD Ratio, 12(S)-HPETE [3, 17]: 5.000
- Kd ([3]; SPR binding isotherm, Figure 5C, biosensor presented 4686 RU of OxP-11D): 34.4 ± 10.1 nM
- Affinity for 12(S)-HPETE relative to affinity for arachidonic acid [3, 19]: approximately 28.5 fold
- D-4F/OxP-11D KD Ratio, arachidonic acid [4, 17]: 0.012
- Kd [4, 18]: 970 nM
- D-4F/OxP-11D KD Ratio, linoleic acid [5, 17]: 0.025
- Kd [5, 18]: 600 nM
- D-4F/OxP-11D KD Ratio, 5(S)-HPETE [6, 17]: 1.059
- Kd ([6]; SPR binding isotherm, Figure 5D, biosensor presented 4686 RU of OxP-11D): 16.9 ± 4.8 nM
- Affinity for 5(S)-HPETE relative to affinity for arachidonic acid [6, 19]: approximately 57 fold
- HDL Inflammatory Index in vivo (apoE deficient mice): activity rivaled D-4F; also recorded: equally effective
- D-4F/OxP-11D KD Ratio, 24(S)-hydroxycholesterol [7, 17]: 17.917
- Kd [7, 20]: 240 nM
- D-4F/OxP-11D KD Ratio, 13(S)-HPODE [8, 17]: 0.677
- Kd [8, 18]: 31 nM
- D-4F/OxP-11D KD Ratio, PEIPC (SPR binding to PEIPC; [17]): 0.005
- Kd (SPR binding to PEIPC; SPR binding isotherm, Figure 5B, biosensor presented 4686 RU of OxP-11D): 12.4 ± 4.4 nM
- D-4F/OxP-11D KD Ratio, 13(S)-HODE [9, 17]: 2.895
- Kd [9, 18]: 3.8 nM
- D-4F/OxP-11D KD Ratio, 20(S)-hydroxycholesterol [10, 17]: 7.647
- Kd [10, 20]: 510 nM
- KD ± SEM, 25-hydroxycholesterol [11]: BND
- D-4F/OxP-11D KD Ratio, 22(S)-hydroxycholesterol [12, 17]: 33.333
- Kd [12, 20]: 450 nM
- KD ± SEM, 4β-hydroxycholesterol [13]: BND
- D-4F/OxP-11D KD Ratio, 12(S)-HETE [14, 17]: 0.375
- Kd [14, 18]: 48 nM
- D-4F/OxP-11D KD Ratio, 9(S)-HODE (SPR binding to 9(S)-HODE; [17]): 0.714
- Kd (SPR binding to 9(S)-HODE; [18]): 21 nM
- D-4F/OxP-11D KD Ratio, 15(S)-HPETE [15, 17]: 1.133
- Kd [15, 18]: 45 nM
- D-4F/OxP-11D KD Ratio, PGPC (SPR binding to PGPC; [17]): 0.002
- Kd (SPR binding to PGPC; [18]): 3200 nM
- D-4F/OxP-11D KD Ratio, 15(S)-HETE [16, 17]: 0.236
- Kd [16, 18]: 93 nM
